Laboratory results: US20260035376A1, “COMPOSITIONS AND METHODS FOR INHIBITION OF RAS” (TheRas, Inc., priority 2022, published 2026)

How the values were obtained:
[1] = target: T1, Avi-KRAS G12D (1-169) GppNHp/RAF1 RBD-3×FLAG (52-151) (Homo sapiens, UniProt P01116, G12D); test: Disrupting RAS-effector binding HTRF assay, Raf1 RBD-KRAS G12D-GppNHp; details: PPI HTRF, 50 nM Avi-KRAS G12D GppNHp, compound titration 30-0.0045 μM; read-out: Raf1 RBD-KRAS G12D-GppNHp disruption
T1 construct: 50 nM Avi-KRAS G12D (1-169) GppNHp/RAF1 RBD-3×FLAG (52-151)

[2] = target: T2, Avi-KRAS G12V (1-169) GppNHp/RAF1 RBD-3×FLAG (52-151) (Homo sapiens, UniProt P01116, G12V); test: Disrupting RAS-effector binding HTRF assay, Raf1 RBD-KRAS G12V-GppNHp; details: PPI HTRF, 50 nM Avi-KRAS G12V GppNHp, compound titration 30-0.0045 μM; read-out: Raf1 RBD-KRAS G12V-GppNHp disruption
T2 construct: 50 nM Avi-KRAS G12V (1-169) GppNHp/RAF1 RBD-3×FLAG (52-151)

[3] = target: T3, Avi-KRAS G12R (1-169) GppNHp/RAF1 RBD-3×FLAG (52-151) (Homo sapiens, UniProt P01116, G12R); test: Disrupting RAS-effector binding HTRF assay, Raf1 RBD-KRAS G12R-GppNHp; details: PPI HTRF, 50 nM Avi-KRAS G12R GppNHp, compound titration 30-0.0045 μM; read-out: Raf1 RBD-KRAS G12R-GppNHp disruption
T3 construct: 50 nM Avi-KRAS G12R (1-169) GppNHp/RAF1 RBD-3×FLAG (52-151)

[4] = target: T4, Avi-KRAS WT (1-169) GppNHp/RAF1 RBD-3×FLAG (52-151) (Homo sapiens, UniProt P01116); test: Disrupting RAS-effector binding HTRF assay, Raf1 RBD-KRAS WT-GppNHp; details: PPI HTRF, 50 nM Avi-KRAS WT GppNHp, compound titration 30-0.0045 μM; read-out: Raf1 RBD-KRAS WT-GppNHp disruption
T4 construct: 50 nM Avi-KRAS WT (1-169) GppNHp/RAF1 RBD-3×FLAG (52-151)

[5] = test system: KRAS G12D protein/effector signaling in GP2d cells; test: Cell-based pERK HTRF assay in GP2d cell; details: 1 h, 60 min incubation
Procedure, shortened: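 GP2d cells (DMEM, 10% FBS) exposed 60 min to a 9-point half-log compound series at 0.25% DMSO, then lysed. Phospho-ERK quantified by HTRF with d2/Eu cryptate antibodies after 4–24 h at room temperature, ex 320/em 615 nm.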

[6] = test system: KRAS G12V protein/effector signaling in SW620 cells; test: Cell-based pERK HTRF assay in SW620 cell; details: Homo sapiens, SW-620, 1 h incubation
Experimental: pERK assay (Perkin Elmer) was used to determine the effectiveness of compounds in disrupting KRAS G12V protein/effector signaling in cells.
On Day 1, cells (SW620) were seeded into 96-well plates at 3×10^4 cells/well in 80 μL complete growth media (DMEM, 10% FBS).
On Day 2, cells were treated with compounds at 0.25% DMSO. The source plate was created with compounds diluted in media at 5-fold the final assay concentration. The compounds were run in a 9-point concentration curve starting at 10 μM, with a half-log dilution between concentrations. 20 μL was transferred onto the cell plates (final volume in wells was 100 μL). Plates were harvested after 1 h incubation by aspirating media and adding kit-supplied 1× supplemented lysis buffer to all wells (50 μL per well). Plates were then placed on a plate shaker and incubated at 850 rpm for an additional 30 min.
Antibody mixture solution was prepared by diluting aliquoted d2 and Eu Cryptate antibodies 1:20 in kit supplied detection buffer, and mixing the diluted antibodies solutions (1:1 v:v). Four μL of this solution was then added to a 384-well detection plate (Perkin Elmer; 6008230).
Samples were homogenized by pipetting up and down and then transferred (16 μL of cell lysates) from the 96-well cell culture plate to two wells of the HTRF 384-well detection plate containing the antibody solution. Plates were centrifuged (524 g for 1 min) and allowed to incubate between 4 and 24 h at room temperature. Maximum signal was reached after 4 h incubation time and remained stable over a period of 24 hours. Therefore, readings could be made between 4 and 24 h of incubation. Plates were centrifuged again (524 g for 1 min), then analyzed on the EnVision plate reader using the following settings: Excitation 320 nm, Bandwidth 75 nm; Emission 615 nm, Bandwidth 85 nm; Gain 100%; Flashes 100; Lag 60 μs.

T1 sequence (P01116 1-169 isoform P01116-2 G12D limits assumed): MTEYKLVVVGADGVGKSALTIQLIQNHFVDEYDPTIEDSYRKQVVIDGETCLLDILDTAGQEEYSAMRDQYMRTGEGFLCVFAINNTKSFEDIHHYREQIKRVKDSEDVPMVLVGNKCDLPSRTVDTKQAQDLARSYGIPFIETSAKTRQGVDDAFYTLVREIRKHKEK
T3 sequence (P01116 1-169 isoform P01116-2 G12R limits assumed): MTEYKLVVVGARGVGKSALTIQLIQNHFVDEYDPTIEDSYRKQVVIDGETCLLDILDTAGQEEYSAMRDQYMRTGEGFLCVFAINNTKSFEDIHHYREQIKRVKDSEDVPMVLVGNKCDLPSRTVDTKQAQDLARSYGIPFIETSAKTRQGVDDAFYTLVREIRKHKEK
T4 sequence (P01116 1-169 isoform P01116-2 limits assumed): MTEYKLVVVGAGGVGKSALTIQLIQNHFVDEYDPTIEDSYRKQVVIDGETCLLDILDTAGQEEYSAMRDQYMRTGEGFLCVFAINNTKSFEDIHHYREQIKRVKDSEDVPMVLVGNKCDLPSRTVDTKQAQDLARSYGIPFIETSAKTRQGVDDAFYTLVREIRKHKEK
T2 sequence (P01116 1-169 isoform P01116-2 G12V limits assumed): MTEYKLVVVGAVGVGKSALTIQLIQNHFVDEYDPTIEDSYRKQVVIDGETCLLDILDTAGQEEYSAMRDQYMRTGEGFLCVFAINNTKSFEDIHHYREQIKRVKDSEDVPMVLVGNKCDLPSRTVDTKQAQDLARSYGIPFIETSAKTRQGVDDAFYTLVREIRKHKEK

SMILES | IC50 [1] [µM] | IC50 [2] [µM] | IC50 [3] [µM] | IC50 [4] [µM] | IC50 [5] [µM] | IC50 [6] [µM]
N#Cc1c(N)sc2c(F)ccc(-c3c(C(F)(F)F)cc4c(N5CC6CCC(C5)N6)nc(OCC5CCCO5)nc4c3F)c12 (stereo not drawn) [Compound 45] | 0.1 to 1 | 1 to 10 | 1 to 10 | 1 to 10 | ≤ 0.1 | > 10
CN1CCC(COc2nc(N3CC4CCC(C3)N4)c3cc(C(F)(F)F)c(-c4ccc(F)c5sc(N)c(C#N)c45)c(F)c3n2)C1=O (stereo not drawn) [Compound 55] | 0.1 to 1 | 1 to 10 | 1 to 10 | 0.1 to 1 | ≤ 0.1 | > 10
CN1C(=O)CC[C@@H]1COc1nc(N2CC3CCC(C2)N3)c2cc(C(F)(F)F)c(-c3ccc(F)c4sc(N)c(C#N)c34)c(F)c2n1 [Compound 57] | 0.1 to 1 | > 10 | > 10 | 1 to 10 | ≤ 0.1 | > 10
N#Cc1c(N)sc2c(F)ccc(-c3c(C(F)(F)F)cc4c(N5CC6CCC(C5)N6)nc(OCCO)nc4c3F)c12 [Compound 32] | 0.1 to 1 | > 10 | > 10 | 1 to 10 | ≤ 0.1 | > 10
N#Cc1c(N)sc2c(F)ccc(-c3c(C(F)(F)F)cc4c(N5C[C@H]6CC[C@@H](C5)N6)nc(OCC5CCOCC5)nc4c3F)c12 [Compound 37, 4-(4-((1R,5S)-3,8-diazabicyclo[3.2.1]octan-3-yl)-8-fluoro-2-((tetrahydro-2H-pyran-4-yl)methoxy)-6-(trifluoromethyl)quinazolin-7-yl)-2-amino-7-fluorobenzo[b]thiophene-3-carbonitrile] | 0.1 to 1 | > 10 | > 10 | 1 to 10 | ≤ 0.1 | > 10
CN(c1nc(OCC2CCOCC2)nc2c(F)c(-c3ccc(F)c4sc(N)c(C#N)c34)c(C(F)(F)F)cc12)[C@@H]1CCCNC1 [Compound 62] | 1 to 10 | > 10 | > 10 | > 10 | > 1 | > 10
N#Cc1c(N)sc2c(F)ccc(-c3c(C(F)(F)F)cc4c(N5CC6CCC(C5)N6)nc(OCCc5cnoc5)nc4c3F)c12 [Compound 65] | 0.1 to 1 | > 10 | > 10 | 1 to 10 | ≤ 0.1 | > 10
N#Cc1c(N)sc2c(F)ccc(-c3c(C(F)(F)F)cc4c(N5CC6CCC(C5)N6)nc(OCC5CCCOC5)nc4c3F)c12 (stereo not drawn) [Compound 48] | 1 to 10 | > 10 | > 10 | 1 to 10 | ≤ 0.1 | > 10
N#Cc1c(N)sc2c(F)ccc(-c3c(C(F)(F)F)cc4c(N5CC6CCC(C5)N6)nc(OCC5CCOC5)nc4c3F)c12 (stereo not drawn) [Compound 47] | 0.1 to 1 | > 10 | > 10 | 1 to 10 | ≤ 0.1 | > 10
N#Cc1c(N)sc2c(F)ccc(-c3c(C(F)(F)F)cc4c(N5CC6CCC(C5)N6)nc(OCCC5CCOC5)nc4c3F)c12 (stereo not drawn) [Compound 50] | 0.1 to 1 | > 10 | > 10 | 1 to 10 | ≤ 0.1 | > 10
CN1C[C@H](COc2nc(N3CC4CCC(C3)N4)c3cc(C(F)(F)F)c(-c4ccc(F)c5sc(N)c(C#N)c45)c(F)c3n2)CC1=O [Compound 33] | 0.1 to 1 | > 10 | > 10 | 1 to 10 | ≤ 0.1 | > 10
N#Cc1c(N)sc2c(F)ccc(-c3c(C(F)(F)F)cc4c(N5CC6CCC(C5)N6)nc(OCCc5ccon5)nc4c3F)c12 [Compound 42] | 0.1 to 1 | > 10 | 1 to 10 | 1 to 10 | ≤ 0.1 | > 10
N#Cc1c(N)sc2c(F)ccc(-c3c(C(F)(F)F)cc4c(N5CC6CCC(C5)N6)nc(OCC5CC6CCC(C5)O6)nc4c3F)c12 (stereo not drawn) [Compound 52] | 1 to 10 | > 10 | > 10 | 1 to 10 | ≤ 0.1 | > 10
N#Cc1c(N)sc2c(F)ccc(-c3c(C(F)(F)F)cc4c(N5CC6CCC(C5)N6)nc(OCC5CCCCO5)nc4c3F)c12 (stereo not drawn) [Compound 49] | 1 to 10 | > 10 | > 10 | 1 to 10 | ≤ 0.1 | > 10
N#Cc1c(N)sc2c(F)ccc(-c3c(C(F)(F)F)cc4c(N5CC6CCC(C5)N6)nc(OC[C@@H]5COCCO5)nc4c3F)c12 [Compound 38] | 1 to 10 | > 10 | > 10 | 1 to 10 | ≤ 0.1 | > 10
